The results in this text go back to PubChem BioAssay (NCI).

Values joined by “and” are separate entries in the source; they are usually repeats but may differ in a detail not shown here. Equal values may be shown once.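 A five-concentration, 48-hour dose response in 96-well plates underlies each endpoint, interpolated linearly between surrounding concentrations. Here, GI50 denotes the concentration required for 50% inhibition of growth. TGI denotes the concentration required for complete inhibition of growth.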

Holding throughout (experiment): growth of human tumour cells (NCI), 48 h
In assay [1] the test system is SF-539 CNS.
The test system of assay [2] is NCI-H226 lung.
For assay [3], the system named is OVCAR-3 ovarian.
Assay [4] relates to SN12C renal.
In assay [5] the test system is MDA-MB-231 breast.
Assay [6] relates to HCT-15 colon.
For assay [7], the system named is 786-0 renal.
The test system of assay [8] is RXF 393 renal.
For assay [9], the system named is SK-MEL-2 melanoma.
Assay [10] relates to SK-MEL-5 melanoma.

Take `Nc1c(C(=O)c2cccc(OCCN3CCOCC3)c2)cnn1-c1ccc(F)cc1`: the GI50 in assay [1], in assay [2], in [3], in [4], in assay [5] and in assay [6] was above 25 µM throughout. Further, the GI50 in [7], in [8], in assay [9] and in assay [10] was above 25 µM throughout. Also, the TGI in [1], in assay [2], in assay [3], in assay [4], in assay [5] and in [6] was above 25 µM throughout. Also, the TGI in assay [7], in [8], in [9] and in assay [10] was above 25 µM each time.
On to `O=C1/C(=C/c2ccccc2)SC(=Nc2ccccc2)N1Nc1ccccc1`, for which the GI50 in [1] was 27.2 µM; in assay [2] it was 10.9 µM; in assay [3] it was 10.2 µM; in [4], 5.48 µM; in assay [5], 18.7 µM; in assay [6], 5.1 µM. In addition, the GI50 in assay [7] was 6.57 µM; in assay [8], 8.44 µM; in assay [9] it was 14.9 µM; in [10], 14.4 µM. In addition, the TGI was 99.5 µM in [1]; 30.5 µM in assay [2]; 91.2 µM in assay [3]; 23.4 µM in [4]; above 100 µM in assay [5]; above 100 µM in assay [6]. The TGI was above 100 µM in assay [7], 30 µM in assay [8], 43.7 µM in [9] and 28.8 µM in assay [10].
For the molecule `C=C1C(=O)O[C@H]2[C@H]1CC/C(COC(=O)C(=O)c1c[nH]c3ccc(OC)cc13)=C\CC[C@@]1(C)O[C@@H]21`, the GI50 in assay [1] was 6.15 µM; in assay [2], 5.84 µM; in [3], 1.87 µM; in [4] it was 6.1 µM; in assay [5], 6.27 µM; in [6] it was 3.77 µM. Further, the GI50 in assay [7] is 5.37 µM; in assay [8], 3.21 µM; in [10] it was 5.48 µM. In addition, the TGI in assay [1] is 10.4 µM; in [2] it was 9.99 µM; in [3] it was 3.42 µM; in assay [4] it was 12.2 µM; in assay [5] it was 12 µM; in [6] it was 7.82 µM. For the same molecule, the TGI in [7] is 9.91 µM; in assay [8] it was 6.84 µM; in assay [9], above 20.4 µM; in assay [10], 8.72 µM.
Consider `CS(=O)(=O)N1CCN(Cc2cc3nc(-c4cccc5[nH]ncc45)nc(N4CCOCC4)c3s2)CC1` (tested in a mixture with another compound), for which the GI50 in [1] is 0.0319 µM; in assay [2] it was 0.374 µM; in assay [3], 0.0615 µM; in assay [4], 0.0898 µM; in assay [5], 1.49 µM; in [6] it was 0.207 µM. In addition, the GI50 in assay [7] is 0.037 µM; in assay [8] it was 0.0792 µM; in assay [9], 0.753 µM; in [10], 0.201 µM. The TGI in assay [1] was 0.108 µM; in assay [3], 0.586 µM; in [5] it was above 100 µM; in assay [6], above 100 µM; in assay [7] it was 0.148 µM; in [8], 0.371 µM. Besides, the TGI was 6.67 µM in assay [9] and 0.638 µM in assay [10].
For `N#CC1C(=N)Cc2ccccc2-c2ccccc21` (stereo not drawn), the GI50 was 3.92 µM in assay [1]; 11.4 µM in assay [2]; 3.6 µM in assay [3]; 5.55 µM in assay [4]; 8.88 µM in assay [5]; 9.66 µM in [7]. For the same molecule, the GI50 in assay [8] is 9.84 µM; in [9] it was 12 µM; in assay [10] it was 3.35 µM. For the same molecule, the TGI was 25.2 µM in assay [1]; above 100 µM in assay [2]; 13 µM in [3]; 38.8 µM in [4]; 35 µM in [5]; 35.2 µM in assay [7]. For the same molecule, the TGI in assay [8] was 82.9 µM; in assay [9] it was 28.7 µM; in assay [10], 11.1 µM.
In the case of `COc1c2ccccc2c(O)c2c(=O)c(C(=O)O)cn(C)c12`, the GI50 in [1] is 35.9 µM; in assay [2], 17.4 µM; in assay [3], above 100 µM; in assay [5], above 100 µM; in [6] it was above 100 µM; in assay [7], above 100 µM. Besides, the GI50 is 80.3 µM in [8], above 100 µM in [9] and above 100 µM in assay [10]. Also, the TGI in assay [1], in assay [2], in [3], in assay [5], in assay [6] and in assay [7] was above 100 µM each time. The TGI in [8], in assay [9] and in assay [10] was above 100 µM each time.
For the molecule `CC[C@@]1(O)C(=O)OCc2c1cc1n(c2=O)Cc2cc3cc(OC)ccc3nc2-1`, the TGI is 0.0361 µM and 0.0962 µM in assay [1]; 0.063 µM and 0.0968 µM and 0.0206 µM in assay [2]; 5.73 µM and 4.54 µM in [3]; 8.12 µM in [6]; 0.0828 µM and 0.561 µM in assay [8]; 0.529 µM in assay [9]. Besides, the TGI in assay [10] was 0.116 µM and 0.0278 µM. The GI50 is 0.367 µM and 0.747 µM in assay [3]; 0.735 µM in assay [5]; 0.223 µM in assay [6]; 0.0159 µM in assay [7]; 0.101 µM in assay [8].
Regarding `COc1ccc2cc(C(=O)/C=C/c3cccc(Cl)c3Cl)ccc2c1`, the GI50 was 2.68 µM in [1]; 7.87 µM in assay [3]; 5.67 µM in assay [4]; 12.2 µM in assay [5]; 2.13 µM in assay [6]; 6.08 µM in assay [7]. Moreover, the GI50 was 2.79 µM in assay [8] and above 50.9 µM in [9]. Moreover, the TGI in assay [1] is 12 µM; in assay [3], 30.1 µM; in assay [4] it was 32.3 µM; in assay [5] it was 39.6 µM; in assay [6], above 34.2 µM; in assay [7], above 41.5 µM. Moreover, the figures for the TGI in assay [8], in [9] and in [10] were 12.4 µM, 98.3 µM and 4.3 µM, respectively.
In the case of `COc1cc2c3c(n(CCN)c(=O)c2cc1OC)-c1cc2c(cc1C3=O)OCO2`, the GI50 was 0.766 µM in [1]; 0.769 µM in assay [2]; 0.254 µM in [4]; 0.255 µM in [5]; 0.471 µM in assay [6]; 0.14 µM in assay [7]. Further, the GI50 was 1.54 µM in assay [8], 3.22 µM in assay [9] and below 0.01 µM in [10]. The TGI in [1] was 2.74 µM; in assay [2] it was 2.55 µM; in assay [4], 1.3 µM; in assay [5], 0.84 µM; in [7] it was 0.502 µM; in assay [8] it was 4.06 µM. Besides, the TGI is 10.5 µM in assay [9] and 0.0975 µM in [10].
With `Cc1cc(S(=O)(=O)Nc2nc3ccsc3c(=O)n2Cc2ccco2)c(S)cc1Cl`, the GI50 in assay [1], in assay [2], in assay [3], in [4], in assay [5] and in assay [6] was above 100 µM throughout. Moreover, the GI50 in assay [7] was above 100 µM; in assay [8], above 100 µM; in assay [10], 42.9 µM. Further, the TGI in [1], in assay [2], in [3], in assay [4], in [5] and in assay [6] was above 100 µM in each case. Further, the TGI in [7], in assay [8] and in assay [10] was above 100 µM throughout.
As to `O=C1C(Cl)=C(Nc2ccc3cn[nH]c3c2)C(=O)c2ccccc21`, the GI50 in assay [1] was 1.81 µM; in assay [3], 1.08 µM; in assay [4] it was 1.49 µM; in [5] it was 1.41 µM; in [6], 1.01 µM; in assay [7] it was 1.81 µM. Besides, the GI50 in assay [8] was 1.54 µM; in assay [9], 1.71 µM; in assay [10], 0.308 µM. Besides, the TGI in [1] amounted to 3.2 µM; in assay [3] it was 2.27 µM; in assay [4] it was 3.11 µM; in assay [5], 2.73 µM; in assay [6], 2.17 µM; in assay [7], 3.21 µM. In addition, the TGI in assay [8] worked out at 2.92 µM; in assay [9], 3.54 µM; in assay [10] it was 1.26 µM.
In the case of `CCCCn1c2c(c3ccccc3c1=O)C(=O)c1ccccc1-2`, the TGI in [1], in assay [2], in assay [3], in [4], in [5] and in assay [6] was above 100 µM in each case. In addition, the TGI in assay [7], in assay [9] and in [10] was above 100 µM throughout.
As for `CO[C@H]1[C@H](O)[C@H](O[C@H]2CC[C@@]3(C)[C@H](CC[C@@H]4[C@@H]3CC[C@]3(C)[C@@H](C5=CC(=O)OC5)CC[C@]43O)C2)O[C@@H](C)[C@@H]1O`, the TGI in assay [1] was 0.00111 µM; in assay [2], 0.0192 µM and < 0.0129 µM; in assay [3] it was 0.00116 µM; in assay [4], 0.00112 µM and < 0.0107 µM; in assay [5], 0.00907 µM; in [6], 0.00255 µM and < 0.0124 µM. Further, the TGI in assay [7] is 0.000687 µM; in [9], 0.00476 µM and < 0.0175 µM; in assay [10], 0.00194 µM.
